Results on ten molecules are retold here after patent US10947503B2, “Method for modifying T cell population” (International Institute of Cancer Immunology, Inc., priority 2014, dated 2021).

For data set [1], the system named is human CD4+CD45RO+ T cells. Put plainly: Modulation of T cell differentiation by RAR agonists and antagonists. It counts as cell-based. To be noted: 8 days culture, vs DMSO. The source says: Human CD4^+CD45RO^+ T cells were stimulated with an anti-CD3/CD28 antibody and IL-2, and cultured in the presence of DMSO as a control, or various RAR agonists (FIG. 30) or RAR antagonists (FIG. 31) for 8 days.

Data set [2] concerns CD4+ T cells with human WT1332-specific TCR gene. Briefly: WT1332-specific TCR-introduced CD4+ T cells: memory proportion and proliferation on re-stimulation. It counts as cell-based. The protocol:
CD4^+ T cells into which a human WT1332-specific TCR gene was introduced were stimulated with human WT1332, and cultured in the presence of DMSO (control), retinoic acid or an RAR antagonist (LE540). As a result, when the T cells were cultured in the presence of the RAR antagonist, the proportion of memory-type CD4^+ T cells was increased (FIG. 24). Further, when the T cell population cultured in the presence of the RAR antagonist was re-stimulated with PBMC which had been pulsed with human WT1332, and cultured (T cell: 30,000 cells/well; PBMC: 100,000 cells/well; […]

Data set [3] concerns human CD4+ T cells transferred into NOG mouse. Put plainly: Reformation ability of cultured T cells in body of immunodeficient mouse. It counts as in vivo. Particulars: T cells in spleen 4 weeks after transfer. As to the method:
Human CD4^+CD45RO^+ T cells were stimulated with an anti-CD3/CD28 antibody, cultured in the presence of DMSO (control), retinoic acid or an RAR antagonist (LE540) for 8 days, and then transferred together with human PBMC from which T cells were removed into the body of an immunodeficient mouse lacking T cells, B cells and NK cells (NOG mouse). After 4 weeks, T cells in the spleen of the mouse were analyzed.

Data set [4] deals with Tumor cells expressing both WT1 protein and luciferase. Put plainly: Anti-tumor immunity induction with human WT1 peptide and RAR antagonist in NOG mice. Particulars: for survival period: intraperitoneal, compared with control (DMSO). It counts as in vivo, mouse. The protocol: Tumor cells expressing both WT1 protein and luciferase were subcutaneously implanted into a ventral part of NOD/Shi-scid, IL-2Rγnull mice (NOG mice). Three days after the implantation, 10^4 human WT1332-specific CD4^+ T cells (GPP positive) were injected intravenously (day 0). Eight hours after the intravenous injection, DMSO (control), retinoic acid or LE540 was administered intraperitoneally. One day after the intravenous injection, CD3^+ T cells were removed, and 2×10^6 human peripheral blood mononuclear cells which had been pulsed with the human WT1332 peptide were injected intravenously (day 1). Then, a survival period was observed. In addition, the amount of tumor was determined every week by administering luciferin which was a substrate for luciferase and measuring the intensity of emission induced by luciferase from outside the body.

For data set [5], the system named is human CD4+CD45RO+ T cells. Briefly: Division ability and proliferation ability of memory T cells after re-stimulation. It counts as cell-based. Particulars: 8 days culture, re-stimulated with anti-CD3/CD28 antibody and IL-2, or IL-7. The protocol: Human CD4^+CD45RO^+ T cells were stimulated with an anti-CD3/CD28 antibody, cultured in the presence of DMSO (control), retinoic acid or an RAR antagonist (LE540) for 8 days, re-stimulated with an anti-CD3/CD28 antibody and IL-2, or IL-7, and cultured. The division ability and proliferation ability of the T cells were evaluated. For evaluation of the division ability, Cell Trace (trade name) Violet Cell Proliferation Kit (manufactured by Life Technologies) was used. As a result, when the differentiation of T cells was enhanced by retinoic acid, both the division ability and the proliferation ability were decreased, whereas when the differentiation was suppressed by the RAR antagonist, both the division ability and the proliferation ability were increased (FIG. 21).

The test system of data set [6] is human CD4+CD45RO+ T cells. Put plainly: Resistance to apoptosis after anti-Fas antibody (7C11) stimulation. The class given is cell-based. Particulars: 8 days culture, then anti-Fas antibody. The protocol:
Human CD4^+CD45RO^+ T cells were cultured in the presence of DMSO (control), retinoic acid or an RAR antagonist (LE540) for 8 days, and then stimulated with an anti-Fas antibody (7C11). The proportion of apoptotic cells and the proportion of living cells were determined and analyzed. As a result, the apoptotic cells were increased and the living cells were decreased by enhancing the differentiation of cells by retinoic acid. In contrast, when the differentiation was suppressed by the RAR antagonist, the apoptotic cells were decreased and the living cells were increased (FIG. 20).

In data set [7] the test system is human CD4+CD45RO+ T cells. Briefly: Ability to form memory T cell population after re-stimulation. It counts as cell-based. To be noted: 8 days culture, re-stimulated and cultured for 7 days. The source says:
Human CD4^+CD45RO^+ T cells were stimulated with an anti-CD3/CD28 antibody, cultured in the presence of DMSO (control), retinoic acid or an RAR antagonist (LE540) for 8 days, and re-stimulated and cultured with an anti-CD3/CD28 antibody and IL-2, or IL-7 for 7 days. The subsets of the T cells were identified.

Data set [8] concerns terminal effector fraction of human WT1332-specific CD4+ T cell clone. Put plainly: Induction of memory T cells from terminal effector T cells. The class given is cell-based. The source says:
A terminal effector fraction contained in a human WT1332-specific CD4+ T cell clone derived from a single cell was stimulated with dendritic cells which had been pulsed with human WT1332, and cultured in the presence of DMSO (control), retinoic acid or an RAR antagonist (LE540) for 7 days. Then, the cells were labelled with CFSE, re-stimulated with dendritic cells which had been pulsed with human […], and further cultured in the presence of DMSO (control), retinoic acid or an RAR antagonist (LE540). After culturing for 4 or 6 days, the cells were subjected to an FACS analysis and a ^3H-thymidine incorporation assay (cell proliferation assay).

Data set [9] relates to human CD4+CD45RO+ T cells. Briefly: Enhancement of T cell differentiation by retinoic acid. To be noted: vs DMSO; stimulation with IL-2, anti-CD3/CD28 antibody, or both. The class given is cell-based. The source says:
Human CD4^+CD45RO^+ T cells were stimulated by various methods (IL-2, anti-CD3/CD28 antibody, and anti-CD3/CD28 antibody and IL2), and cultured in the presence of DMSO (control) or all-trans retinoic acid (hereinafter retinoic acid used in all Examples described below is all-trans retinoic acid). As a result, in the cell population cultured in the presence of retinoic acid, the proportion of central memory cells (upper right in a graph) was decreased, and the proportion of terminal effector cells (left lower in a graph) was increased (FIG. 19).

The test system of data set [10] is human CD4+CD45RO+ T cells. Put plainly: Culture with anti-CD3, anti-CD28, IL-2 and retinol for a week: cell number and intracellular cytokine assay (IFN-γ). It counts as cell-based. To be noted: various concentrations of retinol, one week; retinol concentration-dependent. The protocol: The RDH10-targeting shRNA (sh #10-2, SEQ ID NO:18), or an shRNA targeting luciferase (sh-luc, SEQ ID NO:20) as a control was introduced into human CD4^+CD45RO^+ T cells using a lentivirus vector. In the same way, a lentivirus vector in which an RDH10 gene was incorporated was introduced into human CD4^+CD45RO^+ T cells to produce RDH10 high-expression T cells.
These cells were cultured in the presence of an anti-CD3 antibody, an anti-CD28 antibody and IL-2 together with various concentrations of retinol (all-trans type) for a week. Then, the number of cells was measured and at the same time, the frequency of cells producing IFN-γ was determined by an intracellular cytokine assay.

The test system of data set [11] is human CD4+CD45RO+ T cells. Briefly: Suppression of RDH10 expression by shRNA: composition of T cell population. The class given is cell-based. To be noted: compared with T cell population expressing control shRNA. The source says: A construct to express an shRNA targeting retinol dehydrogenase 10 and consisting of a sequence set forth in SEQ ID NO:18 (RDH10-targeting shRNA) was introduced into human CD4^+CD45RO^+ T cells. Specifically, using a lentivirus vector system, packaging cells (293T cell line) were co-transfected with a vector in which a DNA consisting of a nucleotide sequence of SEQ ID NO:19 was incorporated into a cloning site and a packaging vector to produce a recombinant virus, and the human CD4^+CD45RO^+ T cells were infected with the recombinant virus. Integration of the shRNA expression construct into a chromosome was confirmed based on the expression of GFP as a reporter which was located downstream of the shRNA expression construct. In the T cell population in which the RDH10-targeting shRNA was expressed by such a method, the proportion of terminal effector cells ([…]) was decreased and the proportion of central memory cells (CD127^+, CD62L^+) was increased, as compared with a T cell population in which a control shRNA (SEQ ID NO:20) was expressed by the same method (FIG. 2).

Consider `CCCCCCCCc1ccc(-c2ccc(C(=O)O)cc2)cc1` [AC55649], for which, in data set [1], the “expression of CD62L” value is “decreased” and the “proportion of memory T cells (CD62L+CD127+ cells)” value (“proportion of memory T cells” below) is given as “decreased”.

As to `CC1(C)CCC(C)(C)c2cc(C(=O)Nc3ccc(C(=O)O)cc3)ccc21` [AM580], in data set [1], the “expression of CD62L” value is listed as “decreased” and the “proportion of memory T cells” value is given as “decreased”.

Turning to `CC1(C)CC=C(c2cnc3ccccc3c2)c2cc(C(=O)Nc3ccc(C(=O)O)cc3)ccc21` [BMS195614], in data set [1], the “expression of CD62L” value is recorded as “increased” and the “proportion of memory T cells” value is recorded as “increased”.

With `O=C(O)c1ccc2cc(-c3ccc(O)c(C45CC6CC(CC(C6)C4)C5)c3)ccc2c1` [CD437], in data set [1], the “expression of CD62L” value is listed as “decreased” and the “proportion of memory T cells” value was “decreased”.

In the case of `CN1c2cc3c(cc2N=C(c2ccc(C(=O)O)cc2)c2ccccc21)C(C)(C)CCC3(C)C` [LE135], in data set [1], the “expression of CD62L” value was “increased” and the “proportion of memory T cells” value is “increased”.

In the case of `CN1c2cc3c(cc2N=C(c2ccc(C(=O)O)cc2)c2ccc4ccccc4c21)C(C)(C)CCC3(C)C` [LE540], the “proliferation ability after re-stimulation with WT1332-pulsed PBMC” value in data set [2] (compared with cells cultured with DMSO or retinoic acid, no IL-2) was “high proliferation ability”. The “proportion of memory-type CD4+ T cells” value in [2] (stimulated with human WT1332) is given as “increased”. In data set [1], the “expression of CD62L” value is “increased” and the “proportion of memory T cells” value is “increased”. Also, in [3], the “ability to proliferate in the body of the immunodeficient mouse” value was “high ability to proliferate” and the “differentiation state of T cells in the mouse” value is listed as “undifferentiated”. In addition, the “tumor size (-fold increase relative to day 0)” value in data set [4] (day 21, compared with DMSO group and retinoic acid group) is on record as “significantly small”. Moreover, in data set [4], the survival period entry is given as “extended”. In data set [5], the “division ability of T cells” value is “increased” and the “proliferation ability of T cells” value is “increased”. In data set [6], the apoptotic cells result is reported as “decreased” and the living cells result is “increased”. Besides, the “appearance frequency of memory T cells” value in [7] is given as “high frequency”. For the same molecule, the “induction of central memory CD4+ T cells from terminal effector CD4+ T cells” value in [8] (LE540) was “induced again”. Further, the “generation of memory T cells having high division ability and high proliferation ability” value in [8] (evaluation after re-stimulation) is listed as “generated”.

For the molecule `CC1(C)CCC(C)(C)c2cc(C3(c4ccc5cc(C(=O)O)ccc5c4)SCCS3)ccc21` [MM11253], in data set [1], the “expression of CD62L” value was “increased” and the “proportion of memory T cells” value is “increased”.

Take `CC1=C(/C=C/C(C)=C/C=C/C(C)=C/C(=O)O)C(C)(C)CCC1` [retinoic acid, all-trans retinoic acid]: in [1], the “expression of CD62L” value is recorded as “decreased” and the “proportion of memory T cells” value is “decreased”. In data set [9], the “proportion of central memory cells” value is “decreased” and the “proportion of terminal effector cells” value is listed as “increased”. Also, the survival period result in data set [4] is on record as “shortened”. In data set [5], the “division ability of T cells” value was “decreased” and the “proliferation ability of T cells” value is “decreased”. Besides, in data set [6], the apoptotic cells entry is reported as “increased” and the living cells result was “decreased”. In addition, the “appearance frequency of memory T cells” value in data set [7] was “low”.

For `CC1=C(/C=C/C(C)=C/C=C/C(C)=C/CO)C(C)(C)CCC1` [retinol, all-trans retinol], in data set [10], the IFN-γ producing cells entry is listed as “increased” and the number of cells result is listed as “increased”.

Turning to “RDH10-targeting shRNA: shRNA targeting retinol dehydrogenase 10, sequence SEQ ID NO:18, expressed from a lentivirus vector (GUACACUUCUGGGCCACUGAACUUCCUGUCAUUUAGUGGUCCAGAAGUGUGC)”, in data set [11], the “proportion of central memory cells (CD127+, CD62L+)” value is recorded as “increased” and the “proportion of terminal effector cells” value was “decreased”.
